Laboratory results taken from publication PMC9279635 (Acta Pharmaceutica Sinica. B, 2021).

Legend:
Format in all cases: biochemical
[1] = biological target: T1, DDR2 (Homo sapiens, UniProt Q16832); assay: ELISA kinase assay, DDR2; conditions: DDR2 IC50, two separate experiments
T1 sequence (Q16832 22-855): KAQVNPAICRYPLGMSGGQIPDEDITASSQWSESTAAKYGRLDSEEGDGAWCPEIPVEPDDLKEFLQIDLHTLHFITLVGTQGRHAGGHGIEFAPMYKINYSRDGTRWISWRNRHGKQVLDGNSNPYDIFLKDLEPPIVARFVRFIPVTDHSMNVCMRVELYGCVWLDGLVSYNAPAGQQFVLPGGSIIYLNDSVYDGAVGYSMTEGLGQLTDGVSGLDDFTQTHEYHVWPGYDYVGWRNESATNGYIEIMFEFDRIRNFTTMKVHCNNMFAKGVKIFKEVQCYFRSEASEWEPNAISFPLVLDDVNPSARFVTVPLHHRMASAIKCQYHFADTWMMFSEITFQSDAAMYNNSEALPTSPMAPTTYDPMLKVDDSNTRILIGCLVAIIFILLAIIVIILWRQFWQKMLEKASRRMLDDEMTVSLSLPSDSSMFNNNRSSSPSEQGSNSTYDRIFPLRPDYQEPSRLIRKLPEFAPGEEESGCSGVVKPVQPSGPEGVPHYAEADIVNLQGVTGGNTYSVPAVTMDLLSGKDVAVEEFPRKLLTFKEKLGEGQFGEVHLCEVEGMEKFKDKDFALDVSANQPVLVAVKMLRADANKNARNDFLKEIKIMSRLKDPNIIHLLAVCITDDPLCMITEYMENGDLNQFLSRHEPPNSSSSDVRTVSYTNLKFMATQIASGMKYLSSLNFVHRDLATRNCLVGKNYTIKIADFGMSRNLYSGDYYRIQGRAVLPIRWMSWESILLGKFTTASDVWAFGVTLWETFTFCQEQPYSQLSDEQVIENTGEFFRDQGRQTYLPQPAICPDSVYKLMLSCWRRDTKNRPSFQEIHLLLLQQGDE

[2] = biological target: RET (Homo sapiens, UniProt P07949); assay: ELISA kinase assay, RET; conditions: for inhibition at 0.01 µM: read-out: RET inhibition @10 nmol/L; for inhibition at 0.1 µM: read-out: RET inhibition @100 nmol/L
Sequence of RET (P07949 29-1114): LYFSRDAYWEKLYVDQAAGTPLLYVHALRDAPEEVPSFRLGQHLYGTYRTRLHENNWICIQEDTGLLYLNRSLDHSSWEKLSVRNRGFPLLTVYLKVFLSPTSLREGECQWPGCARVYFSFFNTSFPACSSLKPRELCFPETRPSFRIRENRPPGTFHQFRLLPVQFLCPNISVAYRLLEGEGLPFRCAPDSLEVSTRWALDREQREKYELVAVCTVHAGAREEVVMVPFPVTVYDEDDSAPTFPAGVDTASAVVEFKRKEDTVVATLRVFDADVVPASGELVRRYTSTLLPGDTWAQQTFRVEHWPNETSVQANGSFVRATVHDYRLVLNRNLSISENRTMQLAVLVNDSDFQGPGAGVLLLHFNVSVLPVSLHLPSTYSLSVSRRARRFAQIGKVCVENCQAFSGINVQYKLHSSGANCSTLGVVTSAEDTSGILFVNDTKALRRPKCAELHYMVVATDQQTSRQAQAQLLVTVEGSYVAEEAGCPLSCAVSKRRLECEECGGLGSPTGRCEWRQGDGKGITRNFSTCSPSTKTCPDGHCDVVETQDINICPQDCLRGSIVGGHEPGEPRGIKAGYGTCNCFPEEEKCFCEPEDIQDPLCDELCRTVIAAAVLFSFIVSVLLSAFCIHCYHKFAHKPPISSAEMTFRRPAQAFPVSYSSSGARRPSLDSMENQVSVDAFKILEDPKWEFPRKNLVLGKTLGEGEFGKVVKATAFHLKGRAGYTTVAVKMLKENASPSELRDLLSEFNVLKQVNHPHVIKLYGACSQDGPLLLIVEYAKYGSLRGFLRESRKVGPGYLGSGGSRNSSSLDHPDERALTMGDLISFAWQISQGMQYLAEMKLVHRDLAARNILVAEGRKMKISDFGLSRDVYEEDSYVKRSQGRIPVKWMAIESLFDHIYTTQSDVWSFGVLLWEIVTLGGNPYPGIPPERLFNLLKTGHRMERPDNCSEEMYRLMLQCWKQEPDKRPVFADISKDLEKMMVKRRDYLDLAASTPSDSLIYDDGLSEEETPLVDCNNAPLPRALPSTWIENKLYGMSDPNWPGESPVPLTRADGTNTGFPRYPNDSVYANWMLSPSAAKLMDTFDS

[3] = biological target: T2, Flt-3 (Homo sapiens, UniProt P36888); assay: ELISA kinase assay, Flt-3; conditions: for inhibition at 0.01 µM: read-out: Flt-3 inhibition @10 nmol/L; for inhibition at 0.1 µM: read-out: Flt-3 inhibition@100 nmol/L
T2 sequence (P36888 27-993): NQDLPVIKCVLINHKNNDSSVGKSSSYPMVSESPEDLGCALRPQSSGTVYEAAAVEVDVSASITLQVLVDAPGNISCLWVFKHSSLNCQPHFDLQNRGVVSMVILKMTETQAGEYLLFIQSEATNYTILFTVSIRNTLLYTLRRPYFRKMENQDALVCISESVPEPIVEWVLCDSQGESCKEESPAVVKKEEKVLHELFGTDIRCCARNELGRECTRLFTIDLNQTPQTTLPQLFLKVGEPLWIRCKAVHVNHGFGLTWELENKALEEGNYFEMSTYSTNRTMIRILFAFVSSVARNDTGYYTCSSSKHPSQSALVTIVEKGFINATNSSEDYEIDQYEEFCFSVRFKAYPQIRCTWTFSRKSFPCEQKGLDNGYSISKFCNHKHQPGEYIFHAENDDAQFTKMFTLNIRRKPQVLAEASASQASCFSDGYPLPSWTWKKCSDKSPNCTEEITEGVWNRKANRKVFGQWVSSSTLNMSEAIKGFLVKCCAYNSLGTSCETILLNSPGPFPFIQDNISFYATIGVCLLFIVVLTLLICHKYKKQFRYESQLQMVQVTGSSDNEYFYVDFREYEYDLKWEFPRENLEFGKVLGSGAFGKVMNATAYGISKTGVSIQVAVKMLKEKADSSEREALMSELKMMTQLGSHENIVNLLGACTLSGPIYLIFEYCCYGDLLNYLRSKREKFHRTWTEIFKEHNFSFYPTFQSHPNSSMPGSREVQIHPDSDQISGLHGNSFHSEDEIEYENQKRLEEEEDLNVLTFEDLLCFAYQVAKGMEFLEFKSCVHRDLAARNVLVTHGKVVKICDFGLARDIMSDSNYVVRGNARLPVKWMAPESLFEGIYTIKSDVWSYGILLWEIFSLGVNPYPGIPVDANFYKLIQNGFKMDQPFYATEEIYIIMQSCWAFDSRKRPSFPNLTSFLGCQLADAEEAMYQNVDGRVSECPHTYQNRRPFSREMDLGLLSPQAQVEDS

SMILES	IC50 [1] [nM]	further results
Cc1ccc(C(=O)Nc2cccc(C(F)(F)F)c2)cc1-c1ccc2nc(N3CCN(C)CC3)ncc2c1 [Compound 19, 4-Methyl-3-(2-(4-methylpiperazin-1-yl)quinazolin-6-yl)-N-(3-(trifluoromethyl)phenyl)benzamide]	42.4 ± 2.3	–
Cc1ccc(C(=O)Nc2cc(CN3C[C@H]4CC[C@@H](C3)N4C)cc(C(F)(F)F)c2)cc1-c1ccc2nc(Nc3cnn(C)c3)ncc2c1 [Compound 31, 4-Methyl-3-(2-((1-methyl-1H-pyrazol-4-yl)amino)quinazolin-6-yl)-N-(3-(((1R,5S)-8-methyl-3,8-diazabicyclo[3.2.1]octan-3-yl)methyl)-5-(trifluoromethyl)phenyl)benzamide]	2.9 ± 0.2	inhibition at 0.01 µM [2]: 95%; inhibition at 0.01 µM [3]: 96%
Cc1ccc(C(=O)Nc2cc(CN3CCN(C)CC3)cc(C(F)(F)F)c2)cc1-c1ccc2nc(Nc3cnn(C)c3)ncc2c1 [Compound 25, 4-Methyl-3-(2-((1-methyl-1H-pyrazol-4-yl)amino)quinazolin-6-yl)-N-(3-((4-methylpiperazin-1-yl)methyl)-5-(trifluoromethyl)phenyl)benzamide]	1.7 ± 0.3	inhibition at 0.01 µM [2]: 93.9%; inhibition at 0.01 µM [3]: 93.5%
CCc1ccc(C(=O)Nc2cccc(C(F)(F)F)c2)cc1-c1ccc2nc(Nc3cnn(C)c3)ncc2c1 [Compound 32, 4-Ethyl-3-(2-((1-methyl-1H-pyrazol-4-yl)amino)quinazolin-6-yl)-N-(3-(trifluoromethyl)phenyl)benzamide]	4.1 ± 0.7	inhibition at 0.1 µM [2]: 77.1%; inhibition at 0.1 µM [3]: 61.8%
Cc1ccc(C(=O)Nc2cccc(C(F)(F)F)c2)cc1-c1ccc2c(c1)COCC2 [Compound 10, 3-(Isochroman-7-yl)-4-methyl-N-(3-(trifluoromethyl)phenyl)benzamide]	20.9 ± 5.2	–
Cc1ccc(C(=O)Nc2cccc(C(F)(F)F)c2)cc1-c1ccc2cnccc2c1 [Compound 12, 3-(Isoquinolin-6-yl)-4-methyl-N-(3-(trifluoromethyl)phenyl)benzamide]	36.5 ± 1	–
Cc1ccc(C(=O)Nc2cc(CN3CCN(C(C)C)CC3)cc(C(F)(F)F)c2)cc1-c1ccc2nc(Nc3cnn(C)c3)ncc2c1 [Compound 26, N-(3-((4-Isopropylpiperazin-1-yl)methyl)-5-(trifluoromethyl)phenyl)-4-methyl-3-(2-((1-methyl-1H-pyrazol-4-yl)amino)quinazolin-6-yl)benzamide]	2.2 ± 0.3	inhibition at 0.01 µM [2]: 92.7%; inhibition at 0.01 µM [3]: 90.1%
Cc1ccc(C(=O)Nc2cccc(C(F)(F)F)c2)cc1-c1ccc2nc(Nc3cnn(C)c3)nc(N)c2c1 [Compound 23, 3-(4-Amino-2-((1-methyl-1H-pyrazol-4-yl)amino)quinazolin-6-yl)-4-methyl-N-(3-(trifluoromethyl)phenyl)benzamide]	6.5 ± 1.5	–
COc1ccc(C(=O)Nc2cccc(C(F)(F)F)c2)cc1-c1ccc2nc(Nc3cnn(C)c3)ncc2c1 [Compound 33, 4-Methoxy-3-(2-((1-methyl-1H-pyrazol-4-yl)amino)quinazolin-6-yl)-N-(3-(trifluoromethyl)phenyl)benzamide]	2.3 ± 0.5	inhibition at 0.1 µM [2]: 41.3%; inhibition at 0.1 µM [3]: 59.7%
Cc1ccc(C(=O)Nc2cccc(C(F)(F)F)c2)cc1-c1ccc2ccncc2c1 [Compound 11, 3-(Isoquinolin-7-yl)-4-methyl-N-(3-(trifluoromethyl)phenyl)benzamide]	1.6 ± 0.1	–
Cc1ccc(C(=O)Nc2cccc(C(F)(F)F)c2)cc1-c1ccc2ncncc2c1 [Compound 13, 4-Methyl-3-(quinazolin-6-yl)-N-(3-(trifluoromethyl)phenyl)benzamide]	2.6 ± 0.1	–
Cc1ccc(C(=O)Nc2cccc(C(F)(F)F)c2)cc1-c1ccc2nc(NC3CCN(C)CC3)ncc2c1 [Compound 17, 4-Methyl-3-(2-((1-methylpiperidin-4-yl)amino)quinazolin-6-yl)-N-(3-(trifluoromethyl)phenyl)benzamide]	10.5 ± 1	–
Cc1ccc(C(=O)Nc2cccc(C(F)(F)F)c2)cc1-c1ccc2ncnc(N)c2c1 [Compound 14, 3-(4-Aminoquinazolin-6-yl)-4-methyl-N-(3-(trifluoromethyl)phenyl)benzamide]	3.8 ± 0.2	–
Cc1ccc(C(=O)Nc2cc(CN3CCN(C4CCCC4)CC3)cc(C(F)(F)F)c2)cc1-c1ccc2nc(Nc3cnn(C)c3)ncc2c1 [Compound 27, N-(3-((4-Cyclopentylpiperazin-1-yl)methyl)-5-(trifluoromethyl)phenyl)-4-methyl-3-(2-((1-methyl-1H-pyrazol-4-yl)amino)quinazolin-6-yl)benzamide]	3.1 ± 1	inhibition at 0.01 µM [2]: 92.8%; inhibition at 0.01 µM [3]: 94.4%
Cc1ccc(C(=O)Nc2cccc(C(F)(F)F)c2)cc1-c1ccc2c(c1)NC(=O)C2 [Compound 9, 4-Methyl-3-(2-oxoindolin-6-yl)-N-(3-(trifluoromethyl)phenyl)benzamide]	4.9 ± 1.1	–
Cc1ccc(C(=O)Nc2cccc(C(F)(F)F)c2)cc1-c1ccc2nc(Nc3cccc(N4CCN(C)CC4)c3)ncc2c1 [Compound 21, 4-Methyl-3-(2-((3-(4-methylpiperazin-1-yl)phenyl)amino)quinazolin-6-yl)-N-(3-(trifluoromethyl)phenyl)benzamide]	6.3 ± 0.5	–
Cc1ccc(C(=O)Nc2cccc(C(F)(F)F)c2)cc1-c1ccc2nc(NC3CC3)ncc2c1 [Compound 16, 3-(2-(Cyclopropylamino)quinazolin-6-yl)-4-methyl-N-(3-(trifluoromethyl)phenyl)benzamide]	9.9 ± 1	–
Cn1cc(Nc2ncc3cc(-c4cc(C(=O)Nc5cccc(C(F)(F)F)c5)ccc4C4CC4)ccc3n2)cn1 [Compound 35, 4-Cyclopropyl-3-(2-((1-methyl-1H-pyrazol-4-yl)amino)quinazolin-6-yl)-N-(3-(trifluoromethyl)phenyl)benzamide]	–	inhibition at 0.1 µM [2]: 50.7%; inhibition at 0.1 µM [3]: 37.1%
Cc1ccc(C(=O)Nc2cccc(C(F)(F)F)c2)cc1-c1ccc2nc(Nc3ccc(N4CCN(C)CC4)cc3)ncc2c1 [Compound 20, 4-Methyl-3-(2-((4-(4-methylpiperazin-1-yl)phenyl)amino)quinazolin-6-yl)-N-(3-(trifluoromethyl)phenyl)benzamide]	5.7 ± 0.3	–
Cc1ccc(C(=O)Nc2cccc(C(F)(F)F)c2)cc1-c1ccc2nc(N)ncc2c1 [Compound 15, 3-(2-Aminoquinazolin-6-yl)-4-methyl-N-(3-(trifluoromethyl)phenyl)benzamide]	1.9 ± 0.4	–
CC(C)c1ccc(C(=O)Nc2cccc(C(F)(F)F)c2)cc1-c1ccc2nc(Nc3cnn(C)c3)ncc2c1 [Compound 34, 4-Isopropyl-3-(2-((1-methyl-1H-pyrazol-4-yl)amino)quinazolin-6-yl)-N-(3-(trifluoromethyl)phenyl)benzamide]	–	inhibition at 0.1 µM [2]: 54.5%; inhibition at 0.1 µM [3]: 56.8%
Cc1ccc(C(=O)Nc2cccc(C(F)(F)F)c2)cc1-c1ccc2nc(NCCN3CCOCC3)ncc2c1 [Compound 18, 4-Methyl-3-(2-((2-morpholinoethyl)amino)quinazolin-6-yl)-N-(3-(trifluoromethyl)phenyl)benzamide]	3.4 ± 0.7	–
